Experimental data as given in patent US5968817A, “DNA encoding serotonin receptors” (priority 1993, dated 1999).
Read-outs that look alike come from different tables or passages of the source.

What was measured:
[1] = system: suprachiasmatic nucleus (SCN) neuronal activity; experiment: Effects of serotonergic agents on circadian rhythm of neuronal activity in suprachiasmatic nucleus slices; conditions: for effect of antagonist on the 8-OH-DPAT-dependent phase shift: antagonist 15 min before, during and 15 min after 1 hour 8-OH-DPAT
Method: This was followed by the normal perfusion medium. Horizontal bars: time of lights-off in donor colony; vertical bars: time of treatment; dotted line: mean time of peak in untreated slices.
The effects of serotinergic agents on the neuronal activity as measured against circadian time in the suprachiasmatic nucleus (SCN) were measured. […] This was followed by the normal perfusion medium.

[2] = molecular target: T1, REC20 serotonin receptor (5-HT6) (Rattus norvegicus, UniProt P32305); experiment: [125I]-LSD competition binding to membranes of CosM6 cells expressing REC20
T1 construct: encodes a putative protein of 435 amino acids; expressed in transfected cells; host or cells: CosM6 (subclone of COS-7), transient, vector pCMV4
T1 sequence (P32305 1-435): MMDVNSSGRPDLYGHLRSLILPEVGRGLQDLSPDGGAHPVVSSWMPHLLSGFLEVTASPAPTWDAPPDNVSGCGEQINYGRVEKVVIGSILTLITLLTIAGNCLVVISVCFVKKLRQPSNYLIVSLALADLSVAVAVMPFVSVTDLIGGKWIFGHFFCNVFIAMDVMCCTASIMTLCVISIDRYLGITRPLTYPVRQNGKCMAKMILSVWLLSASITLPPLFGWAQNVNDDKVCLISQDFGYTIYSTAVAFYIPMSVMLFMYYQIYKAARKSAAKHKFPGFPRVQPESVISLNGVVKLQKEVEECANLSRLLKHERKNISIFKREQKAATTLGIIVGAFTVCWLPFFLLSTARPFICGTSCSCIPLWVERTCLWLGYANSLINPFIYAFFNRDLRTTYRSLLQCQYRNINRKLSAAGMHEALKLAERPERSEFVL

[3] = molecular target: T2, REC17 serotonin receptor (5-HT5α) (Rattus norvegicus, UniProt P35364); experiment: [125I]-LSD competition binding to membranes of CosM6 cells expressing REC17
T2 construct: contains an ORF encoding 357 amino acids; expressed in transfected cells; host or cells: CosM6 (subclone of COS-7), transient, vector pCMV4
T2 sequence (P35364 whole entry): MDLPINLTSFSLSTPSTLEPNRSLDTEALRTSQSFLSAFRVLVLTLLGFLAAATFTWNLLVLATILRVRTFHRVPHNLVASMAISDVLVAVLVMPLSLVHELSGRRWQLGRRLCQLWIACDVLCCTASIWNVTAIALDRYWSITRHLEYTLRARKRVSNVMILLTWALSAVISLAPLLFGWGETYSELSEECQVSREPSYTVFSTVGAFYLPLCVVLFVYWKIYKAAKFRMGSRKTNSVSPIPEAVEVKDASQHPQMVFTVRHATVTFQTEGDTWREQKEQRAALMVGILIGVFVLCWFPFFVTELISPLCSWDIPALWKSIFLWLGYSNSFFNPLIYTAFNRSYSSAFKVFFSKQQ

[4] = molecular target: T3, MR22 serotonin receptor (5-HT5β) (Rattus norvegicus, UniProt P35365); experiment: [125I]-LSD competition binding to membranes of CosM6 cells expressing MR22
T3 construct: contains an open reading frame (ORF) encoding 370 amino acids; expressed in transfected cells; host or cells: CosM6 (subclone of COS-7), transient, vector pCMV4
T3 sequence (P35365 whole entry S4C/P322A): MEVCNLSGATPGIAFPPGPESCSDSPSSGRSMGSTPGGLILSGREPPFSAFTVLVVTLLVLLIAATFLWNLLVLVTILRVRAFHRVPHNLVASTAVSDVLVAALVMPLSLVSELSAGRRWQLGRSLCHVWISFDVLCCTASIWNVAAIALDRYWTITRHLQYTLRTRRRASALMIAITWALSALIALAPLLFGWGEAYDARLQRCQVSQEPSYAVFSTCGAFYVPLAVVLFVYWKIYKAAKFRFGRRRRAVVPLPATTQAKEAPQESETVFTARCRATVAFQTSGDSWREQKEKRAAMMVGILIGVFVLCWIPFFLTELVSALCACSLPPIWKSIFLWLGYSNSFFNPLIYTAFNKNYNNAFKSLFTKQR

[5] = molecular target: T4, MR77 serotonin receptor (5-HT1E-Like) (Rattus norvegicus, UniProt P30940); experiment: [125I]-LSD competition binding to membranes of CosM6 cells expressing MR77
T4 construct: expressed in transfected cells; host or cells: CosM6 (subclone of COS-7), transient, vector pCMV4
T4 sequence (P30940 1-366): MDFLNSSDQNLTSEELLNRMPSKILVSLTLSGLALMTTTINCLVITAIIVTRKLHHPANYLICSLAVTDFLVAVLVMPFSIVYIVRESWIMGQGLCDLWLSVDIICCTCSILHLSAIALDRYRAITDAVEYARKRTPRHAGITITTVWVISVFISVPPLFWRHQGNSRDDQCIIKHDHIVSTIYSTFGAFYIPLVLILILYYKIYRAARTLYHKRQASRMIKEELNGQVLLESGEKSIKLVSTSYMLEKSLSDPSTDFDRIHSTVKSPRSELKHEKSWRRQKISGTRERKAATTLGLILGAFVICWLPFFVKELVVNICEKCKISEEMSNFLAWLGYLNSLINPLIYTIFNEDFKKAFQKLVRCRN

[6] = CosM6 membranes, 1 nM [125I]-LSD, 60 min 37° C., read-out: IC50 for competition with 125I-LSD, Rec20
[7] = CosM6 membranes, 1 nM [125I]-LSD, 60 min 37° C., read-out: IC50 for competition with 125I-LSD, MR77

For `Cc1nc2sccn2c(=O)c1CCN1CCC(=C(c2ccc(F)cc2)c2ccc(F)cc2)CC1` [Ritanserin], the “effect of antagonist on the 8-OH-DPAT-dependent phase shift” value [1] was “blocks” and the IC50 [2, 6] was 0.06 µM.
`CN1C[C@@H](NS(=O)(=O)N(C)C)C[C@@H]2c3cccc4c3c(cn4C)C[C@H]21` [Mesulergine] was tested, and the IC50 [3] was over 1 µM, the IC50 [4] was over 1 µM and the IC50 [5, 7] was over 1 µM. For the same compound, the IC50 [2, 6] was 0.017 µM.
`COC(=O)[C@@H]1[C@H]2C[C@H]3c4[nH]c5ccccc5c4CCN3C[C@@H]2CC[C@@H]1O` [Yohimbine] showed an IC50 [5, 7] of 0.57 µM.
For `CC(C)NCC(O)COc1cccc2[nH]ccc12` (stereo not drawn) [Pindolol], the “effect of antagonist on the 8-OH-DPAT-dependent phase shift” value [1] was “has no effect” and the IC50 [2, 6] was over 1 µM.
With `CCCN(CCC)C1CCc2cccc(O)c2C1` (stereo not drawn) [Ligand 8-OH-DPAT] the IC50 [3] was over 1 µM, the “sensitivity of REC17 to the ligand (in words)” value (“sensitivity of REC17” for short) [3] was “insensitive” and the IC50 [4] was over 1 µM. The “sensitivity of MR22 to the ligand (in words)” value (“sensitivity of MR22” for short) [4] was “insensitive”, the “phase advance in the circadian rhythm of spontaneous neuronal activity in the SCN” value ([1]; slice bath treatment for 1 hour) was 2 to 3 h and the “sensitivity of radiolabeled LSD binding to MR77 to the ligand (in words)” value (from here on “sensitivity … to MR77 to the ligand (in words)”) [5] was “insenstive”. The “sensitivity of radiolabeled LSD binding to REC20 to the ligand (in words)” value (shortened to “sensitivity … to REC20 to the ligand (in words)”) [2] was “displace” and the IC50 [2, 6] was 0.097 µM.
With `CC[C@@H](CO)NC(=O)[C@@H]1C=C2c3cccc4c3c(cn4C)C[C@H]2N(C)C1` [Methysergide] the IC50 [3] was 0.31 µM, the IC50 [4] was over 1 µM and the IC50 [5] was 0.014 µM. It also gave an IC50 [2] of 0.032 µM.
With `CSc1ccc2c(c1)C(N1CCN(C)CC1)Cc1ccccc1S2` (stereo not drawn) [Methiothepin] the IC50 [3] was 0.045 µM, the “sensitivity of REC17” value [3] was “sensitive” and the “sensitivity of MR22” value [4] was “sensitive”. For the same compound, the IC50 [5, 7] was over 1 µM.
`O=C(c1ccc(F)cc1)C1CCN(CCn2c(=O)[nH]c3ccccc3c2=O)CC1` [ketanserin] was tested, and the “sensitivity … to REC20 to the ligand (in words)” value [2] was “sensitive”.
With `CN1C[C@H](C(=O)N[C@]2(C)O[C@@]3(O)[C@@H]4CCCN4C(=O)[C@H](Cc4ccccc4)N3C2=O)C=C2c3cccc4[nH]cc(c34)C[C@H]21` [Ergotamine] the IC50 [4] was 0.022 µM, the “sensitivity of MR22” value [4] was “sensitive” and the IC50 [5] was 0.055 µM. For the same compound, the IC50 [2] was 0.033 µM.
`NCCc1c[nH]c2ccc(O)cc12` [Ligand 5-HT, 5-hydroxytryptamine] was tested, and the IC50 [3] was 0.38 µM and the IC50 [5, 7] was 0.07 µM.
`CN1C[C@H](CNC(=O)OCc2ccccc2)C[C@@H]2c3cccc4c3c(cn4C)C[C@H]21` [Metergoline] was tested, and the IC50 [3] was over 1 µM, the IC50 [4] was over 1 µM and the IC50 [5, 7] was 0.535 µM. For the same compound, the IC50 [2, 6] was 0.017 µM.
With `NCCc1c[nH]c2ccc(C(N)=O)cc12` [Ligand 5-CT, 5-carboxyamidotryptamine] the IC50 [3] was 0.0204 µM, the “sensitivity of REC17” value [3] was “sensitive” and the IC50 [4] was 0.285 µM. The “sensitivity of MR22” value [4] was “sensitive”, the “sensitivity … to MR77 to the ligand (in words)” value [5] was “insenstive” and the IC50 [5, 7] was over 1 µM. The “sensitivity … to REC20 to the ligand (in words)” value [2] was “displace” and the IC50 [2, 6] was 0.0008 µM.
`CNS(=O)(=O)Cc1ccc2[nH]cc(CCN(C)C)c2c1` [Sumatriptan] was tested, and the IC50 [3] was over 1 µM, the “sensitivity of REC17” value [3] was “insensitive” and the IC50 [4] was over 1 µM. The “sensitivity of MR22” value [4] was “insensitive”, the “sensitivity … to MR77 to the ligand (in words)” value [5] was “sensitive” and the IC50 [2, 6] was over 1 µM.
`CCN(CC)C(=O)[C@@H]1C=C2c3cccc4[nH]c([125I])c(c34)C[C@H]2N(C)C1` [[^125 I]-LSD] was tested, and the “binding of [125I]-LSD to REC17 broken cell preparations (in words)” value ([3]; transfected CosM6 cells) was “saturable binding”, the “binding of [125I]-LSD to MR22 broken cell preparations (in words)” value ([4]; transfected CosM6 cells) was “saturable binding” and the “binding of [125I]-LSD to MR77 broken cell preparations (in words)” value ([5]; transfected CosM6 cells) was “saturable binding”. For the same compound, the “binding of [125I]-LSD to REC20 broken cell preparations (in words)” value ([2]; transfected CosM6 cells) was “saturable binding”.
